Test results taken from paper PMC3133741 (Journal of medicinal chemistry, 2011).
Bridge positions count the residues as written; N and C are the ends. Square brackets hold non-standard residues; d marks the D form. Peptide text beside a SMILES is read from it. * marks the point of attachment. d(aThr) = C[C@@H](O)[C@@H](N)C(=O)O; Dhb = C/C=C(\N)C(=O)O; Propionyl = CCC(=O)*

What was measured:
TRPV1 [1] = biological target: T1, TRPV1 (Homo sapiens, UniProt Q8NER1); experiment: TRPV1 antagonism, structure-activity comparison; format: cell-based
T1 sequence (Q8NER1 whole entry): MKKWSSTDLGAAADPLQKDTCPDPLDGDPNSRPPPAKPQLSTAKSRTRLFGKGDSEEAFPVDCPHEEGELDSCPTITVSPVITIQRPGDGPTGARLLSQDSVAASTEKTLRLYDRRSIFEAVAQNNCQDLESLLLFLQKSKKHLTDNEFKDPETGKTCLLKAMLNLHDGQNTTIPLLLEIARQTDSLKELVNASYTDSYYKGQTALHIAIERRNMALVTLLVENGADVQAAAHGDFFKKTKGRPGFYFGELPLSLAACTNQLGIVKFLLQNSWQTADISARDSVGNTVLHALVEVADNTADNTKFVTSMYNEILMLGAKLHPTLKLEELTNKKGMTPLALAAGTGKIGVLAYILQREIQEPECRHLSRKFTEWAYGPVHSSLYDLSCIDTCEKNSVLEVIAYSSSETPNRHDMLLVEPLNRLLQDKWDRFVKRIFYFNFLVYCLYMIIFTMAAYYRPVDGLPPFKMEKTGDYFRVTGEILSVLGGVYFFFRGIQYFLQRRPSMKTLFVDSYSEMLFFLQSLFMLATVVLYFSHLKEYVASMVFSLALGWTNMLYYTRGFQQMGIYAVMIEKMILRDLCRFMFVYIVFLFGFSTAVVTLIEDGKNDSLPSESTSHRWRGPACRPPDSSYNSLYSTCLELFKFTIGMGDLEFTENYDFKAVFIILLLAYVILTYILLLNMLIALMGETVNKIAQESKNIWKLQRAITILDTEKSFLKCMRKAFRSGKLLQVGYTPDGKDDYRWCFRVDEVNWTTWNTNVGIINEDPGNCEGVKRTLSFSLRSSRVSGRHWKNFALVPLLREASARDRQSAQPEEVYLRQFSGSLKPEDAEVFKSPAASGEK

TRPV1 [2] = biological target: T1, TRPV1; experiment: Calcium flux assay in BEAS-2B cells stably overexpressing human TRPV1; format: cell-based; conditions: capsaicin 2.5 μM
human wild type TRPV1 = human wild type TRPV1 (Homo sapiens, UniProt Q8NER1); experiment: Calcium flux assay in HEK-293 cells transfected with wild-type human TRPV1; format: cell-based; conditions: for duration of abolished TRPV1 activity after removal of drug: mouse and human TRPV1 channels
human wild type TRPV1, sequence (Q8NER1 whole entry): as above

human TRPV1 F660A mutant = human TRPV1 F660A mutant (Homo sapiens, UniProt Q8NER1, F660A); experiment: Calcium flux assay in HEK-293 cells, human TRPV1 F660A mutant; conditions: 375 μM, pre-incubated (Figure 3)
human TRPV1 F660A mutant, sequence (Q8NER1 whole entry F660A): as the sequence (Q8NER1 whole entry) above, with F660A counted along it

[3] = tested on: mutant human TRPV1 variants; experiment: Calcium flux assay in HEK-293 cells, three further; conditions: 375 μM, pre-incubated (Figure 3)
human TRPV1 C621A mutant = human TRPV1 C621A mutant (Homo sapiens, UniProt Q8NER1, C621A); experiment: Calcium flux assay in HEK-293 cells, human TRPV1 C621A mutant; conditions: 375 μM, pre-incubated (Figure 3)
human TRPV1 C621A mutant, sequence (Q8NER1 whole entry C621A): as the sequence (Q8NER1 whole entry) above, with C621A counted along it

human TRPV1 C578A mutant = human TRPV1 C578A mutant (Homo sapiens, UniProt Q8NER1, C578A); experiment: Calcium flux assay in HEK-293 cells, human TRPV1 C578A mutant; conditions: 375 μM, pre-incubated (Figure 3)
human TRPV1 C578A mutant, sequence (Q8NER1 whole entry C578A): as the sequence (Q8NER1 whole entry) above, with C578A counted along it

TRPV1 [4] = biological target: TRPV1 (Mus musculus, UniProt Q704Y3); experiment: Long-term TRPV1 antagonism test in mouse DRG neurons; format: cell-based; conditions: 125 μM, 5 min incubation
TRPV1 (Mus musculus, UniProt Q704Y3), sequence (Q704Y3 whole entry): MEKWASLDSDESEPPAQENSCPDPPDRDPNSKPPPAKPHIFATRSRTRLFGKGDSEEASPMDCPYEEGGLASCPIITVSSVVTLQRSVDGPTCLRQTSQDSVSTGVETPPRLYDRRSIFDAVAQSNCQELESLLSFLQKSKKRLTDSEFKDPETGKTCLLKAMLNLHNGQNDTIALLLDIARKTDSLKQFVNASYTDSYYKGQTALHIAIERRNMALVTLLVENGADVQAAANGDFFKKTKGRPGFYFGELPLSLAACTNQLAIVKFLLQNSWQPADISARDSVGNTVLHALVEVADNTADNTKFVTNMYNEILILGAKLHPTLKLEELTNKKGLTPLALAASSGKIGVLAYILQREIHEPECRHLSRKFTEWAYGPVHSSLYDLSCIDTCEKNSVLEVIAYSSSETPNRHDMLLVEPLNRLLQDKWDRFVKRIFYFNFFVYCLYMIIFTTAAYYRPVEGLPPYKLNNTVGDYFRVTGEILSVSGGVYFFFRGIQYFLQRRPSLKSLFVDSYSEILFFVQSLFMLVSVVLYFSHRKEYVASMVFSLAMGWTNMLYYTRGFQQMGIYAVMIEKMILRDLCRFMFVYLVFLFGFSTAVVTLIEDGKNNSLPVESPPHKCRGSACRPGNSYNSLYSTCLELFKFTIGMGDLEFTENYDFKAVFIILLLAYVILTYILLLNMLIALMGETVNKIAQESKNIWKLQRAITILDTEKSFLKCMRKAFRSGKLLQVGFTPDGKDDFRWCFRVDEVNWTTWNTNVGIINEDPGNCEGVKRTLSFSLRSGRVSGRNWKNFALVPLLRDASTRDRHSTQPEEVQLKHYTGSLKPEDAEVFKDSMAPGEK

mouse DRG neurons = experiment: Fluorometric calcium flux assay in mouse DRG primary cell culture; format: cell-based; conditions: 125 μM final concentration; 25 mM KCl 5 min after application, then capsaicin

Structure (SMILES)	inhibitory activity (in words) (TRPV1 [1])	antagonism of capsaicin in direct competition experiments (TRPV1 [2])	duration of abolished TRPV1 activity after removal of drug (human wild type TRPV1) [h]	TRPV1 antagonism in F660A mutant (human TRPV1 F660A mutant)	inhibition of three other TRPV1 mutants [3]	TRPV1 antagonism in C621A mutant (human TRPV1 C621A mutant)	TRPV1 antagonism in C578A mutant (human TRPV1 C578A mutant)	further results
CC(=O)N[C@@H](Cc1ccccc1)C(=O)N[C@H](CC(C)C)C(=O)N[C@@H](Cc1ccccc1)C(=O)N[C@@H](C(=O)N[C@H](C(=O)N[C@@H](C)C(=O)O)C(C)C)[C@@H](C)O [Compound 6, Nobilamide C] (Ac-F[dL]F[d(aThr)]VA-OH)	Neither 6 nor 1a exhibited detectable activity	–	–	–	–	–	–	–
C/C=C1\NC(=O)[C@H](C)NC(=O)[C@H](C(C)C)NC(=O)[C@H](NC(=O)[C@H](Cc2ccccc2)NC(=O)[C@@H](CC(C)C)NC(=O)[C@@H](Cc2ccccc2)NC(=O)CC)[C@@H](C)OC1=O [Compound 1, A-3302-B] (Propionyl-[dF][dL]F[d(aThr)]VA[Dhb]; ester 4-C)	exhibited inhibitory activity	–	–	–	–	–	–	–
C/C=C1\NC(=O)[C@H](C)NC(=O)[C@H](C(C)C)NC(=O)[C@H](NC(=O)[C@H](Cc2ccccc2)NC(=O)[C@@H](CC(C)C)NC(=O)[C@@H](Cc2ccccc2)NC(C)=O)[C@@H](C)OC1=O [Compound 2, A-3302-A] (Ac-[dF][dL]F[d(aThr)]VA[Dhb]; ester 4-C)	exhibited inhibitory activity	antagonize the action of capsaicin on TRPV1	> 1	complete loss of TRPV1 antagonism	in a manner similar to wild type	complete loss of TRPV1 antagonism	complete loss of TRPV1 antagonism	–
C/C=C(\NC(=O)[C@H](C)NC(=O)[C@@H](NC(=O)[C@H](NC(=O)[C@H](Cc1ccccc1)NC(=O)[C@@H](CC(C)C)NC(=O)[C@@H](Cc1ccccc1)NC(=O)CC)[C@@H](C)O)C(C)C)C(=O)O [Compound 5, Nobilamide B] (Propionyl-[dF][dL]F[d(aThr)]VA[Dhb]-OH)	exhibited inhibitory activity	antagonize the action of capsaicin on TRPV1	> 1	complete loss of TRPV1 antagonism	in a manner similar to wild type	complete loss of TRPV1 antagonism	complete loss of TRPV1 antagonism	potency with pre-incubation versus co-application with capsaicin (human wild type TRPV1; 375 μM compound, capsaicin 25 μM (Figure 1)): greatly increased with pre-incubation; stability of inhibitory activity to washes (human wild type TRPV1; 375 μM, 1 h timecourse with washes (Figure 2)): stable through four washes taking place over a 60-min period; rebound of activity (human wild type TRPV1; after washes, human cells): slight rebound of activity was noticed after one hour
C/C=C1\NC(=O)[C@H](C)NC(=O)[C@H](C(C)C)NC(=O)[C@H](NC(=O)[C@H](Cc2ccc(O)cc2)NC(=O)[C@@H](CC(C)C)NC(=O)[C@H](Cc2ccccc2)NC(C)=O)[C@@H](C)OC1=O [Compound 8, Nobilamide E] (Ac-F[dL]Y[d(aThr)]VA[Dhb]; ester 4-C)	inactive	–	–	–	–	–	–	–
C/C=C(\NC(=O)[C@H](C)NC(=O)[C@@H](NC(=O)[C@H](NC(=O)[C@H](Cc1ccccc1)NC(=O)[C@@H](CC(C)C)NC(=O)[C@@H](Cc1ccccc1)NC(C)=O)[C@@H](C)O)C(C)C)C(=O)O [Compound 4, Nobilamide A] (Ac-[dF][dL]F[d(aThr)]VA[Dhb]-OH)	exhibited inhibitory activity	–	–	–	–	–	–	recovery of capsaicin response (TRPV1 [4]; three-hour recovery period): recovery was observed after three hours; capsaicin response after incubation with compound (TRPV1 [4]; capsaicin 100 or 200 nM): initially abolished; response to capsaicin after application of pure compound (mouse DRG neurons): complete loss of response to capsaicin
